Values quoted from earlier work in paper PMC10949855 (Journal of veterinary pharmacology and therapeutics, 2022).

Details: oral, dogs; ref KuKanich & KuKanich 2015; Matsui et al 1995; cited from earlier work

Going from `CN/C(=N/CCSCc1nc[nH]c1C)NC#N` [cimetidine] to `CN(C)CCCC1(c2ccc(F)cc2)OCc2cc(C#N)ccc21` (stereo not shown) [citalopram], the TMAX falls from 1.8 h to 1 h (1.8-fold).

First: O=C(N[C@H](CO)[C@H](O)c1ccc([N+](=O)[O-])cc1)C(Cl)Cl [chloramphenicol]
Second: CC(=O)N1CCN(c2ccc(OCC3COC(Cn4ccnc4)(c4ccc(Cl)cc4Cl)O3)cc2)CC1 (stereo not shown) [ketoconazole]
The TMAX of the first is 1.5-fold lower: 1.3 h for the first, 2 h for the second.
